Here are results for five compounds from patent US11702415B2, “Crystalline hydrate of a JAK inhibitor compound” (THERAVANCE BIOPHARMA R&D IP, LLC, priority 2020, dated 2023).

Series [1] concerns hospitalized patients with COVID-19. The settings on record: in combination with remdesivir versus placebo with remdesivir, within 29 days after initiating treatment; cited from earlier work.
A short description of series [2]: Pharmacokinetics in plasma and lung in mouse. Type of series: in vivo. The settings on record: single oral aspiration, 0.2 mg/mL 50 μL. The protocol:
Plasma and lung concentrations of test compound and ratio thereof were determined in the following manner. BALB/c mice from Charles River Laboratories were used in the assay. […] At various time points (typically 0.167, 2, 6, 24 hr) post dosing, blood samples were removed via cardiac puncture and intact lungs were excised from the mice.

A short description of series [3]: Lung S9 metabolism. The class given is in vitro ADME, human. The settings on record: for Compound Remaining at 60 min: human lung S9, 1 μM compound, 1 mg/mL protein, NADPH and PAPS; for Sulfate Appearance: human lung S9, qualitative, O-sulfate metabolite peak. The protocol:
The in vitro metabolic stability of compounds 1 and C-1 were evaluated in human lung S9 fraction (1 μM compound; 1 mg/mL S9 protein). The time 0, 15, 30, and 60 minute samples were analyzed for parent compound by high resolution LC-MS/MS. Lung S9 fractions from human (lot 1410245) were purchased from XenoTech LLC (Lenexa, Kans.). NADPH (Sigma Aldrich, N1630) and 3-phosphoadenosine 5-phosphosulfate (PAPS) (Sigma Aldrich, A1651) were purchased from Sigma Aldrich (St. Louis, Mo.). Acetonitrile and water were obtained from VWR (Radnor, Pa.) and were of HPLC grade or better. Raloxifene and formic acid was purchased from Sigma Aldrich (St. Louis, Mo.). Lung S9 incubations were performed in a water bath at 37° C. in a 96-well polypropylene plate. Lung S9 solutions consisted of 100 mM potassium phosphate buffered to pH 7.4 (BD Biosciences, Woburn, Mass.) supplemented with 1 mM NADPH (Sigma-Aldrich, St. Louis, Mo.), 3 mM magnesium chloride (Sigma Aldrich, M1028) and in the presence of 100 μM PAPS (Sigma-Aldrich, St. Louis, Mo.) cofactor, with final incubation protein concentrations of 1 mg/mL. 10 mM DMSO stocks of Raloxifene (n=1) and compound (n=1) were diluted in buffer and spiked into the incubations to yield 1 μM substrate concentrations ([…]). Incubation volumes consisted of 400 μL and time points were taken at 0, 15, 30, and 60 minutes by the removal of a 70 μL aliquot and dilution into 140 μL acetonitrile (0% formic acid). All samples were centrifuged at 2250 g for 10 minutes at 5° C. Supernatant (50 μL) was taken from the centrifuged samples and diluted into 100 μL HPLC water containing internal standard. The samples were run on a Dionex Ultimate 3000 Auto sampler and analyzed using a Thermo Q-Exactive High Resolution Mass Spectrometer (Thermo, Waltham, Mass.) in Full Scan mode in conjunction with an Atlantis T3 column 3 μM-2.1×50 mm (Waters Inc., 186003717). Mobile Phase A consisted of Water+0.2% formic acid and Mobile Phase B consisted of acetonitrile+0.2% formic acid. Peak integration was accomplished using Gubbs GMSU software (Gubbs Inc., Alpharetta, Ga.). For each sample, peak area ratios were calculated by dividing the analyte peak area by the internal standard peak area. For each incubation, the peak area ratios of the analytes in each t0 was set to 100%, and the peak areas ratios from the 60-minute samples were converted to percentages remaining relative to the corresponding t0. Determination of sulfate metabolite formation was made qualitatively by observation of early-eluting peak in the parent ion channel which, based on historical internal data, corresponded to the O-sulfate metabolite of each parent compound.

Series [4] is described as follows: Stability study at accelerated temperature and relative humidity (HPLC). Type of series: physicochemical. The settings on record: samples of Form I.
For series [5], the system named is IL-13 induced pSTAT6 in lung tissue. Briefly: Murine model of IL-13 induced pSTAT6 induction in lung tissue. The class given is in vivo. The settings on record: mouse lung, oral aspiration 1 mg/mL 50 μL, IL-13 challenge 4 h after dose. The protocol:
IL-13 binds to cell surface receptors activating members of the Janus family of kinases (JAK) which then phosphorylate STAT6 and subsequently activates further transcription pathways. In the described model, a dose of IL-13 was delivered locally into the lungs of mice to induce the phosphorylation of STAT6 (pSTAT6) which is then measured as the endpoint.
Activity in the model is evidenced by a decrease in the level of pSTAT6 present in the lungs of treated animals at 5 hours compared to the vehicle treated, IL-13 challenged control animals. The difference between the control animals which were vehicle-treated, IL-13 challenged and the control animals which were vehicle-treated, vehicle challenged dictated the 0% and 100% inhibitory effect, respectively, in any given experiment.

The test system of series [6] is patients with steroid-refractory acute or chronic GVHD. The settings on record: 95 patients, salvage therapy, including lung GVHD; cited from earlier work.
A short description of series [7]: Dynamic moisture sorption assessment. Type of series: physicochemical. The protocol:
Dynamic moisture sorption (DMS) measurement was performed using a VTI atmospheric microbalance, SGA-100 system (VTI Corp., Hialeah, Fla. 33016). A weighed sample was used and the humidity was lowest possible value (close to 0% RH) at the start of the analysis. The DMS analysis consisted of an initial drying step (˜0% RH) for 16 hours, followed by two cycles of sorption and desorption with a scan rate of 5% RH/step over the humidity range of 5% RH to 90% RH. The DMS run was performed isothermally at 25° C.

`CCS(=O)(=O)N1CC(CC#N)(n2cc(-c3ncnc4[nH]ccc34)cn2)C1` [baricitinib]: the time to recovery entry in series [1] is reported as “reduce time to recovery”.

As for `CCc1cc(O)ccc1-c1ccc2c(-c3nc4c([nH]3)CN(C(C)C)[C@H](C(=O)N3CC(N(C)C)C3)C4)n[nH]c2c1` [Compound 1, (S)-(3-(dimethylamino)azetidin-1-yl)(2-(6-(2-ethyl-4-hydroxyphenyl)-1H-indazol-3-yl)-5-isopropyl-4,5,6,7-tetrahydro-3H-imidazo[4,5-c]pyridin-6-yl)methanone], the “Lung Tissue AUC(0-24)” value in series [2] came to 54.5 µg·h/g. In series [3] (human lung S9), the “sulfation metabolism compared to fluoro analog C-1” value is reported as “significantly less sulfation metabolism”. Besides, in series [3], the “Compound Remaining at 60 min” value came to 81%. The “Sulfate Appearance” value in series [3] is “Yes”. Besides, the “Compound 1 content by HPLC” value in series [4] (T = 0) was found to be 97.5% a/a; in series [4] (T = 1 month, 40° C./75% RH) it was 97.5% a/a; in series [4] (T = 3 month, 25° C./60% RH), 97.6% a/a; in series [4] (T = 3 month, 40° C./75% RH), 97.5% a/a. Besides, the “pSTAT6 inhibition at 5 hours” value in series [5] amounted to 75.

In the case of `N#CC[C@H](C1CCCC1)n1cc(-c2ncnc3[nH]ccc23)cn1` [ruxolitinib], the “clinical response in GVHD patients” value in series [6] is on record as “complete or partial response to ruxolitinib in the majority of patients”.

For the compound `CCc1cc(O)ccc1-c1ccc2c(-c3nc4c([nH]3)CN(C(C)C)[C@H](C(=O)N3CC(N(C)C)C3)C4)n[nH]c2c1` [Form I, (S)-(3-(dimethylamino)azetidin-1-yl)(2-(6-(2-ethyl-4-hydroxyphenyl)-1H-indazol-3-yl)-5-isopropyl-4,5,6,7-tetrahydro-3H-imidazo[4,5-c]pyridin-6-yl)methanone hydrate Form I], the hygroscopicity result in series [7] (dynamic moisture sorption, 25° C.) was “moderately hygroscopic”. For the same compound, in series [7] (relative humidity between 0% and 90% at room temperature), the total moisture uptake result was “about 5.3%”.

`CCc1cc(O)c(F)cc1-c1ccc2c(-c3nc4c([nH]3)CN(C(C)C)[C@H](C(=O)N3CC(N(C)C)C3)C4)n[nH]c2c1` [Compound C-1, (S)-(3-(dimethylamino)azetidin-1-yl)(2-(6-(2-ethyl-5-fluoro-4-hydroxyphenyl)-1H-indazol-3-yl)-5-isopropyl-4,5,6,7-tetrahydro-3H-imidazo[4,5-c]pyridin-6-yl)methanone, reference compound]: in series [3], the “Compound Remaining at 60 min” value is 6% and the “Sulfate Appearance” value is recorded as “Yes”.
